Where two headings read alike, the source gives them in different places. Starred links: 1 amine or outer side, 2 acyl side, 3 side chain; linkers in the order of their positions; H or OH if unused. Positions of bridges follow the written chain, without caps; N, C: chain ends. Non-standard residues stand in square brackets, D forms with d. Residues, ends and D or L forms follow the SMILES beside them. *: point of attachment. Phe(3-(CH2)4CO) = O=C([C@H](Cc1cccc(CCCCC(=O)[*:3])c1)N[*:1])[*:2]; NMeF = CN[C@@H](Cc1ccccc1)C(=O)O; NMeI = CC[C@H](C)[C@H](NC)C(=O)O; NMeL = CN[C@@H](CC(C)C)C(=O)O; NMeV = CN[C@H](C(=O)O)C(C)C; NMeA = CN[C@@H](C)C(=O)O; Piperidide = C1CCN(*)CC1; β3hA = C[C@H](N)CC(=O)O; Sar = CNCC(=O)O; tBu = CC(C)(C)*

Data set [1] can be described thus: PAMPA (parallel artificial membrane permeability assay). Conditions: PAMPA. It counts as in vitro ADME. A digest of the protocol:
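Artificial membrane was 10% (w/v) egg lecithin plus 0.5% (w/v) cholesterol in dodecane on a PVDF filter. A 10 mM DMSO stock was added at 0.5% (v/v) to donor buffer (50 mM MOPSO, pH 6.5, 5.0% glycocholic acid). After 18 h at 37 °C, LC/MS or LC/UV gave donor and acceptor levels for Pe.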

Data set [2] can be described thus: Metabolic stability in human hepatic microsome. It counts as in vitro ADME. The following applies: microsomes.
Where [3] appears, read: membrane permeation rate (Pe), 50 mM MOPSO buffer pH 6.5 with 5.0% glycocholic acid, 37° C., 18 hours, read-out: iPAMPA Pe.
Where [4] appears, read: pH 7.4, human hepatic microsome, NADPH(+), read-out: CL NADPH(+).

As to `CC(C)C[C@H]1C(=O)N[C@@H]([C@@H](C)O)C(=O)N(C)[C@@H](Cc2ccccc2)C(=O)N[C@@H](COC(C)(C)C)C(=O)N[C@H](C(=O)N2CCCCC2)CC(=O)N[C@@H](C(C)C)C(=O)N(C)CC(=O)N1C` [DP-749] (V[Sar][NMeL]T[NMeF]S(tBu)D-Piperidide; lactam N-7), the Papp at 18 hours, 50 µM in data set [1] (setting [3]) worked out at 17 ×10⁻⁶ cm/s. Also, in data set [2] (setting [4]), the microsomal CLint at 1 uM turned out to be 56 µL/min/mg.
In data set [1] (pH 6.5), `CC[C@H](C)[C@@H]1NC(=O)[C@H](C)NC(=O)C[C@H](C)NC(=O)[C@H](CC(C)C)NC(=O)[C@H](CC(C)C)NC(=O)[C@H](C(C)C)NC(=O)[C@H](C)N(C)C(=O)[C@H](CC(C)C)NC(=O)CNC(=O)[C@H]([C@@H](C)O)NC(=O)[C@H](CC(C)C)N(C)C(=O)[C@@H]2CCCN2C1=O` [DP-808] (cyclo(AIP[NMeL]TGL[NMeA]VLL[β3hA])) came in with a Papp at 18 hours, 50 µM of 3.3 ×10⁻⁶ cm/s. In data set [2] (human, pH 7.4, CL NADPH(+)), this molecule registered a microsomal CLint at 1 uM of 33 µL/min/mg.
On to `CC[C@H](C)[C@@H]1NC(=O)[C@@H](C(C)C)NC(=O)C[C@@H](C(=O)N(C)[C@@H](Cc2ccccc2)C(=O)N[C@@H](C)C(=O)N2CCCCC2)NC(=O)[C@H](Cc2ccccc2)N(C)C(=O)[C@H](C)NC(=O)[C@H](CC(C)C)N(C)C(=O)[C@H](C)N(C)C(=O)[C@H]([C@@H](C)O)NC(=O)[C@H](C)N(C)C(=O)[C@H](C(C)C)N(C)C1=O` [DP-294] ([dV]I[NMeV][NMeA]T[NMeA][NMeL]A[NMeF]D[NMeF]A-Piperidide; lactam N-10), for which the Papp at 18 hours, 50 µM in data set [1] (pH 6.5) was 17 ×10⁻⁶ cm/s. Moreover, the microsomal CLint at 1 uM in data set [2] (human, pH 7.4, CL NADPH(+)) amounted to 35 µL/min/mg.
Take `CC[C@H](C)[C@H](NC(=O)[C@@H](NC(=O)[C@H](C)N(C)C(=O)[C@@H]1CC(=O)N(C)[C@@H](C)C(=O)N(C)[C@@H](CC(C)C)C(=O)N(C)[C@@H](CC(C)C)C(=O)N[C@@H](CC(C)C)C(=O)N(C)[C@@H](CC(C)C)C(=O)N(C)[C@@H](Cc2ccccc2)C(=O)N(C)[C@@H](Cc2ccccc2)C(=O)N[C@@H]([C@@H](C)O)C(=O)N(C)[C@@H](C)C(=O)N(C)[C@@H](CC(C)C)C(=O)N1)C(C)C)C(=O)N1CCCCC1` [DP-951] ([NMeA][NMeL][NMeL]L[NMeL][NMeF][NMeF]T[NMeA][NMeL]D[NMeA]VI-Piperidide; lactam N-11): in data set [1] (setting [3]), the Papp at 18 hours, 50 µM turned out to be 0.1 ×10⁻⁶ cm/s. In addition, the microsomal CLint at 1 uM in data set [2] (setting [4]) is 11 µL/min/mg.
Regarding `CC[C@H](C)[C@H]1C(=O)N[C@@H](C)C(=O)N(C)[C@@H](CC(C)C)C(=O)N[C@@H](COC(C)(C)C)C(=O)N(C)[C@@H](CC(C)C)C(=O)N[C@H](C(=O)N2CCCCC2)Cc2cccc(c2)CCCCC(=O)N[C@@H](Cc2ccccc2)C(=O)N(C)[C@@H](Cc2ccccc2)C(=O)N(C)[C@@H](CC(C)C)C(=O)N[C@@H]([C@@H](C)O)C(=O)N(C)[C@@H](C)C(=O)N1C` [DP-874] (F[NMeF][NMeL]T[NMeA][NMeI]A[NMeL]S(tBu)[NMeL][Phe(3-(CH2)4CO)]-Piperidide; lactam N-11), the Papp at 18 hours, 50 µM in data set [1] (setting [3]) came out at 0.15 ×10⁻⁶ cm/s. Besides, the microsomal CLint at 1 uM in data set [2] (setting [4]) came out at 48 µL/min/mg.
As to `CC(C)C[C@H]1C(=O)N[C@@H](COC(C)(C)C)C(=O)N[C@@H]([C@@H](C)O)C(=O)N(C)[C@@H](Cc2ccccc2)C(=O)N(C)[C@@H](CC(C)C)C(=O)N[C@H](C(=O)N2CCCCC2)CC(=O)N[C@@H](C(C)C)C(=O)N1C` [DP-748] (V[NMeL]S(tBu)T[NMeF][NMeL]D-Piperidide; lactam N-7), the Papp at 18 hours, 50 µM in data set [1] (setting [3]) is 45 ×10⁻⁶ cm/s. The microsomal CLint at 1 uM in data set [2] (setting [4]) was determined as 341 µL/min/mg.
Turning to `CC[C@H](C)[C@@H]1NC(=O)[C@H](Cc2ccccc2)N(C)C(=O)[C@H](Cc2ccccc2)NC(=O)[C@H](C(C)C)N(C)C(=O)[C@H](CC(C)C)N(C)C(=O)[C@H](CC(C)C)NC(=O)[C@@H](C)NC(=O)C[C@@H](C(=O)N2CCCCC2)NC(=O)[C@H]([C@@H](C)O)NC(=O)[C@H](C)NC(=O)[C@H](C)N(C)C1=O` [DP-226] ([dA]L[NMeL][NMeV]F[NMeF]I[NMeA]ATD-Piperidide; lactam N-11), the Papp at 18 hours, 50 µM in data set [1] (setting [3]) worked out at 32 ×10⁻⁶ cm/s. In addition, the microsomal CLint at 1 uM in data set [2] (setting [4]) amounted to 46 µL/min/mg.

These data come from patent US9409952B2, “Peptide-compound cyclization method” (Chugai Seiyaku Kabushiki Kaisha, priority 2011, dated 2016).
